Laboratory results as given in PubChem BioAssay (NCI).
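How tested: cells in 96-well plates exposed to compound for 48 hours at five concentrations. TGI: concentration producing complete growth inhibition.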 Where a SMILES comes first, the peptide text is derived from it. Bridges are numbered along the chain shown (N, C = ends). [ ]: non-standard residue; d: D form. The star is where a group is joined. Cbz = O=C(OCc1ccccc1)*; Aib = CC(C)(N)C(=O)O; OBn = c1ccc(CO*)cc1; βAla = NCCC(=O)O

Each compound was assayed on UACC-62 melanoma (assay: DTP human tumour cell line panel, 48 h).
Work on `CC(=O)OC[C@H]1[C@@H]2C(CC[C@]13CO3)OC(=O)CC(C)[C@]2(C)CCc1ccoc1` (some centres undefined) yielded a TGI of over 100 µM. For `CCOC(=O)C(=C(SC)SC)c1nn2c(=O)cc(C)nc2s1`, the TGI was 57.3 µM. For `CCCN=C(NC(=O)c1ccc(Cl)cc1)SC`, the TGI was over 100 µM. Work on `COc1ccc(-c2c(C#N)c(NC(=S)NC(=O)c3ccccc3)nc3c2CCCC3)cc1OC` yielded a TGI of over 100 µM. Compound `Cc1c(Cc2ccccc2)n(COCCCO)c(=O)[nH]c1=O` has a TGI of over 100 µM. `CC1(C)NC(=O)C(NC(=O)C(CC(=O)OCc2ccccc2)NC(=O)OCc2ccccc2)CCCCNC(=O)CCNC1=O` (centres undefined) (Cbz-D(OBn)K[Aib][βAla]; lactam 2-C; configuration not given here) was tested, and the TGI was over 100 µM. With `c1ccc2c(c1)nc1n2CNCC1` the TGI was over 100 µM.

Each compound was assayed on U251 CNS (assay: DTP human tumour cell line panel, 48 h).
In the case of `CC(=O)OC[C@H]1[C@@H]2C(CC[C@]13CO3)OC(=O)CC(C)[C@]2(C)CCc1ccoc1` (some centres undefined), the TGI is reported as over 100 µM. With `CCOC(=O)C(=C(SC)SC)c1nn2c(=O)cc(C)nc2s1` the TGI was 58.1 µM. Work on `CCCN=C(NC(=O)c1ccc(Cl)cc1)SC` yielded a TGI of over 100 µM. `COc1ccc(-c2c(C#N)c(NC(=S)NC(=O)c3ccccc3)nc3c2CCCC3)cc1OC` gave a TGI of over 100 µM. Work on `Cc1c(Cc2ccccc2)n(COCCCO)c(=O)[nH]c1=O` yielded a TGI of over 100 µM. `CC1(C)NC(=O)C(NC(=O)C(CC(=O)OCc2ccccc2)NC(=O)OCc2ccccc2)CCCCNC(=O)CCNC1=O` (centres undefined) (Cbz-D(OBn)K[Aib][βAla]; lactam 2-C; configuration not given here) gave a TGI of over 100 µM. Work on `c1ccc2c(c1)nc1n2CNCC1` yielded a TGI of over 100 µM.

The compounds below were run on MOLT-4 leukemia (assay: DTP human tumour cell line panel, 48 h).
With `CC(=O)OC[C@H]1[C@@H]2C(CC[C@]13CO3)OC(=O)CC(C)[C@]2(C)CCc1ccoc1` (some centres undefined) the TGI was over 100 µM. Work on `CCOC(=O)C(=C(SC)SC)c1nn2c(=O)cc(C)nc2s1` yielded a TGI of 44.1 µM. `CCCN=C(NC(=O)c1ccc(Cl)cc1)SC` gave a TGI of over 100 µM. `COc1ccc(-c2c(C#N)c(NC(=S)NC(=O)c3ccccc3)nc3c2CCCC3)cc1OC` showed a TGI of over 100 µM. `Cc1c(Cc2ccccc2)n(COCCCO)c(=O)[nH]c1=O` gave a TGI of over 100 µM. `CC1(C)NC(=O)C(NC(=O)C(CC(=O)OCc2ccccc2)NC(=O)OCc2ccccc2)CCCCNC(=O)CCNC1=O` (centres undefined) (Cbz-D(OBn)K[Aib][βAla]; lactam 2-C; configuration not given here) gave a TGI of over 100 µM. With `c1ccc2c(c1)nc1n2CNCC1` the TGI was over 100 µM.

The compounds below were run on SF-295 CNS (assay: DTP human tumour cell line panel, 48 h).
Compound `CC(=O)OC[C@H]1[C@@H]2C(CC[C@]13CO3)OC(=O)CC(C)[C@]2(C)CCc1ccoc1` (some centres undefined) has a TGI of over 100 µM. Work on `CCOC(=O)C(=C(SC)SC)c1nn2c(=O)cc(C)nc2s1` yielded a TGI of over 100 µM. `CCCN=C(NC(=O)c1ccc(Cl)cc1)SC` was tested, and the TGI was over 100 µM. `COc1ccc(-c2c(C#N)c(NC(=S)NC(=O)c3ccccc3)nc3c2CCCC3)cc1OC` gave a TGI of over 100 µM. `Cc1c(Cc2ccccc2)n(COCCCO)c(=O)[nH]c1=O` was tested, and the TGI was over 100 µM. `CC1(C)NC(=O)C(NC(=O)C(CC(=O)OCc2ccccc2)NC(=O)OCc2ccccc2)CCCCNC(=O)CCNC1=O` (centres undefined) (Cbz-D(OBn)K[Aib][βAla]; lactam 2-C; configuration not given here) showed a TGI of over 100 µM. `c1ccc2c(c1)nc1n2CNCC1` gave a TGI of over 100 µM.

What follows are compounds tested on SK-MEL-5 melanoma (assay: DTP human tumour cell line panel, 48 h).
In the case of `CC(=O)OC[C@H]1[C@@H]2C(CC[C@]13CO3)OC(=O)CC(C)[C@]2(C)CCc1ccoc1` (some centres undefined), the TGI is reported as over 100 µM. `CCOC(=O)C(=C(SC)SC)c1nn2c(=O)cc(C)nc2s1` showed a TGI of 36.9 µM. In the case of `CCCN=C(NC(=O)c1ccc(Cl)cc1)SC`, the TGI is reported as over 100 µM. With `COc1ccc(-c2c(C#N)c(NC(=S)NC(=O)c3ccccc3)nc3c2CCCC3)cc1OC` the TGI was over 100 µM. Work on `Cc1c(Cc2ccccc2)n(COCCCO)c(=O)[nH]c1=O` yielded a TGI of over 100 µM. `CC1(C)NC(=O)C(NC(=O)C(CC(=O)OCc2ccccc2)NC(=O)OCc2ccccc2)CCCCNC(=O)CCNC1=O` (centres undefined) (Cbz-D(OBn)K[Aib][βAla]; lactam 2-C; configuration not given here) was tested, and the TGI was over 100 µM. For `c1ccc2c(c1)nc1n2CNCC1`, the TGI was over 100 µM.

What follows are compounds tested on HCT-116 colon (assay: DTP human tumour cell line panel, 48 h).
`CC(=O)OC[C@H]1[C@@H]2C(CC[C@]13CO3)OC(=O)CC(C)[C@]2(C)CCc1ccoc1` (some centres undefined) showed a TGI of over 100 µM. `CCOC(=O)C(=C(SC)SC)c1nn2c(=O)cc(C)nc2s1` showed a TGI of 30.5 µM. `CCCN=C(NC(=O)c1ccc(Cl)cc1)SC` showed a TGI of over 100 µM. For `COc1ccc(-c2c(C#N)c(NC(=S)NC(=O)c3ccccc3)nc3c2CCCC3)cc1OC`, the TGI was over 100 µM. For `Cc1c(Cc2ccccc2)n(COCCCO)c(=O)[nH]c1=O`, the TGI was over 100 µM. Work on `CC1(C)NC(=O)C(NC(=O)C(CC(=O)OCc2ccccc2)NC(=O)OCc2ccccc2)CCCCNC(=O)CCNC1=O` (centres undefined) (Cbz-D(OBn)K[Aib][βAla]; lactam 2-C; configuration not given here) yielded a TGI of over 100 µM. In the case of `c1ccc2c(c1)nc1n2CNCC1`, the TGI is reported as over 100 µM.

These compounds were tested on COLO 205 colon (assay: DTP human tumour cell line panel, 48 h).
With `CC(=O)OC[C@H]1[C@@H]2C(CC[C@]13CO3)OC(=O)CC(C)[C@]2(C)CCc1ccoc1` (some centres undefined) the TGI was over 100 µM. For `CCOC(=O)C(=C(SC)SC)c1nn2c(=O)cc(C)nc2s1`, the TGI was 36.2 µM. For `CCCN=C(NC(=O)c1ccc(Cl)cc1)SC`, the TGI was over 100 µM. Compound `COc1ccc(-c2c(C#N)c(NC(=S)NC(=O)c3ccccc3)nc3c2CCCC3)cc1OC` has a TGI of over 100 µM. With `Cc1c(Cc2ccccc2)n(COCCCO)c(=O)[nH]c1=O` the TGI was over 100 µM. Compound `CC1(C)NC(=O)C(NC(=O)C(CC(=O)OCc2ccccc2)NC(=O)OCc2ccccc2)CCCCNC(=O)CCNC1=O` (centres undefined) (Cbz-D(OBn)K[Aib][βAla]; lactam 2-C; configuration not given here) has a TGI of over 100 µM. Work on `c1ccc2c(c1)nc1n2CNCC1` yielded a TGI of over 100 µM.
